Reference: ChEMBL document CHEMBL4651402, “Screening of ~5500 FDA-approved drugs and clinical candidates for anti-SARS-CoV-2 activity” (2021)
pIC50: −log10 of the molar value. Structures can show the parent of a compound that is named as a salt.

Columns and labels:
[1] = test system: SARS-CoV-2; experiment: microbe, parasite or virus in culture; format: functional, organism-based, Chlorocebus sabaeus, Vero C1008; settings: Severe acute respiratory syndrome coronavirus 2, Vero C1008, 48 h; for pIC50: read-out: IC50; for IC50: read-out: pIC50 (converted)
[2] = test system: SARS-CoV-2; experiment: microbe, parasite or virus in culture; settings: Severe acute respiratory syndrome coronavirus 2, Vero C1008, 48 h; for IC50: read-out: pIC50 (converted)

Row | SMILES | pIC50 [1] | IC50 [1] | pIC50 [2] | IC50 [2]
1 | Nc1ccn([C@@H]2S[C@H](CO)[C@@H](O)[C@H]2F)c(=O)n1 | < 4.70 | > 20 µM | < 4.70 | > 20 µM
2 | COc1cc2c(c(OC)c1OC)-c1ccc(OC)c(=O)cc1[C@@H](NC(C)=O)CC2 [COLCHICINE] | < 4.00 | > 100 µM | < 4.00 | > 100 µM
3 | Nc1ccn([C@@H]2S[C@H](CO)[C@@H](O)[C@@H]2O)c(=O)n1 [THIARABINE] | ~4.91 | ~12.3 µM | < 4.70 | > 20 µM
4 | CC(C)C(=O)OC[C@H]1O[C@@H](n2cc/c(=N\O)[nH]c2=O)[C@H](O)[C@@H]1O [MOLNUPIRAVIR] | ~5.34 | ~4.57 µM | 4.85 | 14.1 µM
5 | CC(COc1ccccc1)N(CCCl)Cc1ccccc1 (stereo not given) [PHENOXYBENZAMINE] | < 4.00 | > 100 µM | 4.70 | 20 µM
6 | CN1CC(=O)N=C1NC(=O)Nc1cccc(Cl)c1 [FENOBAM ANHYDROUS] | < 4.60 | > 25.1 µM | < 4.70 | > 20 µM
7 | COc1nc(N)nc2c1ncn2[C@@H]1O[C@H](COP(=O)(N[C@@H](C)C(=O)OCC(C)(C)C)Oc2cccc3ccccc23)[C@@H](O)[C@@]1(C)O (stereo not given in full) [BMS-986094] | < 4.70 | > 20 µM | < 4.70 | > 20 µM
8 | Nc1ccn([C@@H]2O[C@H](CO)[C@@H](O)[C@@H]2O)c(=O)n1 [CYTARABINE] | < 4.70 | > 20 µM | < 4.30 | > 50.1 µM
9 | CCN(CC)CCOc1ccc(C(=C(Cl)c2ccccc2)c2ccccc2)cc1 [CLOMIPHENE] | < 4.70 | > 20 µM | < 4.70 | > 20 µM
10 | CCOc1ccc(-n2c([C@@H](C)N(Cc3cccnc3)C(=O)Cc3ccc(OC(F)(F)F)cc3)nc3ncccc3c2=O)cc1 (racemic) | < 4.70 | > 20 µM | < 4.70 | > 20 µM
11 | CN1c2c([nH]c(N)nc2=O)NCC1CNc1ccc(C(=O)N[C@@H](CCC(=O)O)C(=O)O)cc1 (stereo not given in full) | < 4.70 | > 20 µM | – | –
12 | Cc1nc2ccc(Oc3ccccc3)cc2c2c1CCN2CCc1ccccc1 | ~5.31 | ~4.9 µM | < 4.70 | > 20 µM
13 | CN(C[C@@H]1COCCO1)S(=O)(=O)Nc1ccc2ccc3ncc(-c4cnn(C)c4)cc3c(=O)c2c1 [MK-2461] | < 4.70 | > 20 µM | < 4.70 | > 20 µM
14 | CCOC(=O)c1c(CSc2ccccc2)n(C)c2cc(Br)c(O)c(CN(C)C)c12 [UMIFENOVIR] | < 4.00 | > 100 µM | < 4.00 | > 100 µM
15 | COc1cccc2c1C(=O)c1c(O)c3c(c(O)c1C2=O)C[C@@](O)(C(=O)CO)C[C@@H]3O[C@H]1C[C@H](N)[C@@H](O)[C@H](C)O1 [EPIRUBICIN] | < 4.00 | > 100 µM | – | –
16 | NCCCCCN | < 4.70 | > 20 µM | – | –
17 | c1cc(OCCCN2CCCCC2)ccc1CN1CCCCC1 [JNJ-5207852] | < 4.70 | > 20 µM | < 4.70 | > 20 µM
18 | Cc1nc(OCCCCCN2CCCCC2)cc(-c2ccc(F)cc2)n1 [ENECADIN] | 4.66 | 21.9 µM | 5.76 | 1.74 µM
19 | CC(C)CN(C[C@H](O)[C@H](Cc1ccccc1)NC(=O)O[C@H]1CO[C@@H]2OCC[C@@H]21)S(=O)(=O)c1ccc(N)cc1 | < 4.70 | > 20 µM | < 4.70 | > 20 µM
20 | CN1CC[C@H](c2c(O)cc(O)c3c(=O)cc(-c4ccccc4Cl)oc23)[C@H](O)C1 [ALVOCIDIB] | < 5.00 | > 10 µM | < 4.70 | > 20 µM

Row | SMILES | pIC50 [1] | IC50 [1] | pIC50 [2] | IC50 [2]
21 | CC[C@@H](C(=O)[C@@H](C)[C@@H](O)[C@H](C)[C@@H]1O[C@@H]([C@@H](CC)C(=O)O)CC[C@@H]1C)[C@H]1O[C@]2(C=C[C@@H](O)[C@]3(CC[C@@](C)([C@H]4CC[C@](O)(CC)[C@H](C)O4)O3)O2)[C@H](C)C[C@@H]1C [SALINOMYCIN] | 5.89 | 1.29 µM | < 4.70 | > 20 µM
22 | CCOc1nc(N)nc2c1ncn2[C@@H]1O[C@@H]2CO[P@](=O)(OC(C)C)O[C@H]2[C@@]1(C)F | < 4.30 | > 50.1 µM | < 4.70 | > 20 µM
23 | Cc1c(-c2ccc(-c3ccccc3F)cc2)nc2ccc(F)cc2c1C(=O)O [BREQUINAR] | < 4.70 | > 20 µM | < 4.70 | > 20 µM
24 | CN(C)C(=O)COC(=O)Cc1ccc(OC(=O)c2ccc(NC(=N)N)cc2)cc1 [CAMOSTAT] | < 4.00 | > 100 µM | < 4.70 | > 20 µM
25 | CC(=O)OC(Cc1ccccc1)(c1ccccc1)C(C)CN1CCCC1 (stereo not given) [PYRROLIPHENE] | – | – | < 4.70 | > 20 µM
26 | O=C(Oc1cccc2cccnc12)c1ccccc1 [BENZOXIQUINE] | – | – | < 4.70 | > 20 µM
27 | C#C[C@]1(OC(C)=O)CC[C@H]2[C@@H]3CCC4=C[C@@H](OC(C)=O)CC[C@@H]4[C@H]3CC[C@@]21C [ETHYNODIOL DIACETATE] | – | – | < 4.70 | > 20 µM
28 | O=C(O)CCCNC(=O)c1cccnc1 | – | – | < 4.70 | > 20 µM
29 | C=CC(N)CCC(=O)O (stereo not given) [VIGABATRIN] | – | – | < 4.70 | > 20 µM
30 | COc1ccc2c3c1O[C@H]1[C@@H](O)C=C[C@H]4[C@@H](C2)[N@+](C)([O-])CC[C@@]341 | – | – | < 4.70 | > 20 µM
31 | O=C(/C=C/c1ccc(O)c(O)c1)OC(Cc1ccc(O)c(O)c1)C(=O)O (stereo not given) | – | – | < 4.70 | > 20 µM
32 | N#Cc1nn(-c2c(Cl)cc(C(F)(F)F)cc2Cl)c(N)c1[S+]([O-])C(F)(F)F (stereo not given) [FIPRONIL] | – | – | < 4.70 | > 20 µM
33 | C[C@]12CC[C@@H]3c4ccc(O)cc4CC[C@H]3[C@@H]1CC[C@@H]2OC(=O)CCC1CCCC1 [ESTRADIOL CYPIONATE] | – | – | < 4.70 | > 20 µM
34 | O=C(OCC(O)CO)c1ccccc1Nc1ccnc2cc(Cl)ccc12 (stereo not given) [GLAFENINE] | – | – | < 4.70 | > 20 µM
35 | O=C[C@@H]1CCCN1C(=O)CCC(=O)NCc1ccc(Cl)cc1 | – | – | < 4.70 | > 20 µM
36 | COc1ccc(C(=O)CC(=O)c2ccc(C(C)(C)C)cc2)cc1 [AVOBENZONE] | – | – | < 4.70 | > 20 µM
37 | CC1(C)OC(=O)Nc2ccc(Br)cc21 [BROFOXINE] | – | – | < 4.70 | > 20 µM
38 | c1ccc(-c2ccc(C(c3ccccc3)n3ccnc3)cc2)cc1 (stereo not given) [BIFONAZOLE] | – | – | < 4.70 | > 20 µM
39 | Nc1nc(=O)n([C@@H]2CS[C@H](CO)O2)cc1F [EMTRICITABINE] | – | – | < 4.70 | > 20 µM
40 | COC1=C(OC)C(=O)C(C/C=C(\C)CC/C=C(\C)CC/C=C(\C)CC/C=C(\C)CC/C=C(\C)CC/C=C(\C)CC/C=C(\C)CC/C=C(\C)CC/C=C(\C)CCC=C(C)C)=C(C)C1=O [UBIDECARENONE] | – | – | < 4.70 | > 20 µM

Row | SMILES | pIC50 [1] | IC50 [1] | pIC50 [2] | IC50 [2]
41 | COCCCC/C(=N\OCCN)c1ccc(C(F)(F)F)cc1 [FLUVOXAMINE] | – | – | < 4.70 | > 20 µM
42 | CN(C)Cc1nccn1-c1ccc(NC(=O)c2cc(C(F)(F)F)nn2-c2ccc3onc(N)c3c2)c(F)c1 [RAZAXABAN] | – | – | < 4.70 | > 20 µM
43 | CC12C=CC(=O)C=C1CCC1C2CCC2(C)C(O)CCC12 (stereo not given) | – | – | < 4.70 | > 20 µM
44 | O=C(O)c1ccccc1 [BENZOIC ACID] | – | – | < 4.70 | > 20 µM
45 | CCCCCCCCCCC[C@@H](C[C@@H]1OC(=O)[C@H]1CCCCCC)OC(=O)[C@H](CC(C)C)NC=O [ORLISTAT] | – | – | < 4.70 | > 20 µM
46 | CC(=O)OCC(=O)[C@@]1(O)CC[C@H]2[C@@H]3CCC4=CC(=O)C=C[C@]4(C)[C@@]3(Cl)[C@@H](Cl)C[C@@]21C [DICHLORISONE ACETATE] | – | – | < 4.70 | > 20 µM
47 | COC1=C(OC)C(=O)C(CCCCCCCCCCO)=C(C)C1=O [IDEBENONE] | – | – | < 4.70 | > 20 µM
48 | Cc1cnc2c(c1)CCCC2C(N)=S (stereo not given) [TIQUINAMIDE] | – | – | < 4.70 | > 20 µM
49 | C[C@]12CCC(=O)C=C1CC[C@@H]1[C@@H]2CC[C@@]2(C)[C@H]1CC[C@]2(C)O [METHYLTESTOSTERONE] | – | – | < 4.70 | > 20 µM
50 | CC(CC(C(N)=O)(c1ccccc1)c1ccccc1)N(C)C (stereo not given) [AMINOPENTAMIDE SULFATE] | – | – | < 4.70 | > 20 µM
51 | O=c1[nH]cnc2c1ncn2[C@@H]1O[C@H](CO)[C@@H](O)[C@H]1O [INOSINE] | – | – | < 4.70 | > 20 µM
52 | O=C(/C=C/c1ccccc1)c1ccc(O)cc1O [2',4'-DIHYDROXYCHALCONE] | – | – | < 4.70 | > 20 µM
53 | Cc1cnc(C(=O)O)c[n+]1[O-] [ACIPIMOX] | – | – | < 4.70 | > 20 µM
54 | CC(C(O)c1ccc(O)cc1)N1CCC(Cc2ccccc2)CC1 (stereo not given) [IFENPRODIL] | – | – | < 4.70 | > 20 µM
55 | Cc1cccc(C)c1NC(=O)c1cc(S(N)(=O)=O)c(Cl)cc1O [XIPAMIDE] | – | – | < 4.70 | > 20 µM
56 | O=c1[nH]c2cc(Cl)ccc2n1C1CCN(CCCC(c2ccc(F)cc2)c2ccc(F)cc2)CC1 [CLOPIMOZIDE] | – | – | < 4.70 | > 20 µM
57 | CC(C)c1ccc2c(c1)CCC1C(C)(CN)CCCC21C (stereo not given) | – | – | < 4.70 | > 20 µM
58 | COc1cc2c3cc1Oc1cc(ccc1O)CC1c4c(cc(OC)c(O)c4Oc4ccc(cc4)CC3N(C)CC2)CC[N+]1(C)C (stereo not given) | – | – | < 4.70 | > 20 µM
59 | CC(=O)O[C@]1(C(C)=O)CCC2C3CCC4=CC(=O)CCC4C3C(C)CC21C (stereo not given in full) | – | – | < 4.70 | > 20 µM
